Where two headings read alike, the source gives them in different places.
What was measured:
[1] = tested on: MDA-MB435 (ER-negative) human breast cancer cell line; assay: Dose response / cell viability (LC50) in MDA-MB435 breast cancer cells
Experimental: 1. […] Biological activity was determined by relative LC50 values of these agents.
(§1) 2. The compounds in series I, II, III, and IV were examined against two different types of breast cancer cell lines which included estrogen receptor positive (MCF-7) and estrogen receptor negative (MDA-MB435) cell lines.
(§2) 3. Toxicity of the compounds for normal breast epithelial cells were examined by comparing LC50 values in normal breast epithelial cell line (MCF-10) against LC50 values in cancer cell lines. LC50 is the concentration that is lethal to 50 percent of the cells. LC50 values were estimated from a dose response graph.
(§3) Two human breast cancers cell lines (MCF-7 and MDA-MB435) and a normal breast epithelial cell line (MCF-10) were obtained from ATCC (American Type Culture Collection) to test against the series of compounds and the data were examined for the compounds' relative antiproliferation profiles. All of these cell lines were derived from epithelial tissue. These cell lines were selected because they allowed our laboratory to investigate the effects of the compounds in: 1) breast neoplasms whose growth is stimulated by the presence of estrogen, MCF-7 (ER-positive); 2) Breast neoplasms whose growth is not stimulated by estrogen MDA-MB435 (ER-negative); and 3) A non-cancer cell line (MCF-10) to compare relative toxicities of the compounds.

[2] = tested on: MCF-7 (ER-positive) human breast cancer cell line; assay: cells
Experimental: 1. A dose response curve for compounds, series I, II, III, IV, over a concentration range of 1 mM to 1 nM was prepared in order to detect the doses where possible biological activity might exist. Biological activity was determined by relative LC50 values of these agents.
as §1, §2, §3

[3] = tested on: EGF stimulated growth of MCF-7 cells; assay type: cell-based, human
Experimental: (§4) The possible mechanism of action of these compounds was explored by examining the ability of these agents to reverse growth factor stimulated proliferation. The ability of these compounds to attenuate EGF and TGF stimulated growth was tested.
(§5) Both MCF-7 and MDA-MB435 cells contain EGF-R and TGF-R. In an effort to examine the role of EGF-R and TGF-R in the proliferation of MCF-7 and MDA-MB435, these cells were stimulated to growth stimulatory at 50 percent (GS50) values.
(§6) In all cases 10 ml of growth factor was administered at a concentration of 1 ng/ml.

[4] = tested on: normal breast epithelial cell line MCF-10; assay: Toxicity for normal breast epithelial cells; assay type: cell-based; settings: MCF-10 cells; highest concentration tested (1 mM); average values
Experimental: 3. […] LC50 values were estimated from a dose response graph.
The relative toxicity of the synthesized compounds (47a-e) against normal breast cells was studied by exposing normal breast epithelial cell line MCF-10 to our synthesized compounds in concentration ranges from 1 nM to 1 mM. These cells were likewise exposed to equivalent concentrations of Tamoxifen, Genestein, and Doxyrubicin. […] At concentrations lower than 10^−7 M, these compounds appeared to enhance the viability of cells.

[5] = tested on: TGF-α stimulated growth of MCF-7 cells; assay: Reversal of TGF-α stimulated growth of MCF-7 cells; assay type: cell-based
Experimental: as §4, §5, §6

[6] = tested on: EGF stimulated growth of MDA-MB435 cells; assay: Reversal of EGF stimulated growth of MDA-MB435 cells; assay type: cell-based; settings: EGF (1 ng/ml) serum and non-serum stimulated growth of MDA-MB435 cells; 10^−9 to 10^−3 M
Experimental: as §4, §5, §6

[7] = tested on: TGF stimulated growth of MDA-MB 435 cells
Experimental: 4. The possible mechanism of action of these compounds was explored by examining the ability of these agents to reverse growth factor stimulated proliferation. The ability of these compounds to attenuate EGF and TGF stimulated growth was tested.
as §5, §6

[8] = tested on: Normal human mammary epithelial (HME) cells stimulated by EGF; settings: read-out: concentration at which cell growth is inhibited by 50% (IC50); cited from earlier work
[9] = Homo sapiens, MCF7, read-out: LC50

Structure (SMILES): CC(C)c1ccc(/C=C/C(=O)C23CC4CC(CC(C4)C2)C3)cc1 [Compound 43f]
- effect on cell viability (in words) ([1]; MDA-MB435 cells): altered cell viability only at much higher concentrations than required for MCF-7 cells
- decrease of cell viability [2]: 20%

Structure (SMILES): O=C(/C=C/c1ccccn1)C12CC3CC(CC(C3)C1)C2 [Compound 47a]
- IC50 ([3]; EGF-non serum stimulated growth of MCF-7 cells, read-out: IC50, reversal of stimulated growth back to control values): 50 µM
- concentration reversing stimulated growth back to control values ([3]; EGF-serum stimulated growth of MCF-7 cells): 10 µM
- % cell viability [4]: 103%
- CC50 ([5]; MCF-7, TGF 1 ng/ml, non-serum stimulated, reversal value, read-out: LC50 Data for Administered Drug, Non-Serum Stimulated): 50 µM
- reversal of stimulated growth (in words) ([5]; TGF-α serum and non-serum stimulated growth of MCF-7 cells, 10^−9 to 10^−3 M): neither TGF-α serum stimulated nor non-serum stimulated growth of MCF-7 cells significantly reversed
- reversal of stimulated growth (in words) [6]: Neither EGF (1 ng/ml) serum nor non-serum stimulated growth of MDA-MB435 cells was reversed
- concentration reversing stimulated growth back to control values ([7]; TGF (1 ng/ml) non-serum stimulated growth of MDA-MB 435 cells): 10 µM
- concentration reversing stimulated growth back to control values ([7]; TGF (1 ng/ml) serum stimulated growth of MDA-MB 435 cells): 50 µM

Structure (SMILES): O=C(/C=C/c1cccnc1)C12CC3CC(CC(C3)C1)C2 [Compound 47b]
- CC50 [1]: 0.005 mM
- % cell viability [4]: 124%

Structure (SMILES): O=C(/C=C/c1ccncc1)C12CC3CC(CC(C3)C1)C2 [Compound 47c]
- % cell viability [4]: 102%

Structure (SMILES): Cc1cccc(/C=C/C(=O)C23CC4CC(CC(C4)C2)C3)n1 [Compound 47d]
- % cell viability [4]: 94%

Structure (SMILES): O=C(/C=C/c1ccnc2ccccc12)C12CC3CC(CC(C3)C1)C2 [Compound 47e]
- % cell viability [4]: 98%
- CC50 [2]: 50 µM
- LC50 increase over tamoxifen ([2]; MCF-7 cells, versus tamoxifen): 10 fold

Structure (SMILES): COc1cccc2c1C(=O)c1c(O)c3c(c(O)c1C2=O)C[C@@](O)(C(=O)CO)C[C@@H]3O[C@H]1C[C@H](N)[C@H](O)[C@H](C)O1 [Doxyrubicin]
- CC50 [2, 9]: 500 µM

Structure (SMILES): O=c1c(-c2ccc(O)cc2)coc2cc(O)cc(O)c12 [Genestein, Genistein]
- CC50 ([1]; Homo sapiens, MDA-MB-435, read-out: LC50): 5 mM
- LC50 (in words) ([1]; MDA-MB435 cells, in the concentration range measured (1 mM to 1 nM)): no LC50 was obtained
- IC50 [8]: 1000 nM

Structure (SMILES): CC/C(=C(\c1ccccc1)c1ccc(OCCN(C)C)cc1)c1ccccc1 [Tamoxifen]
- effect on cell viability (in words) ([1]; MDA-MB435 cells): ineffective at lower concentrations
- CC50 [2, 9]: 500 µM

Reference: patent US7563789B2, “1-Adamantyl chalcones for the treatment of proliferative disorders” (priority 2002, dated 2009)
